Common to all, as to experiment: relative viability (nuclei count vs DMSO), 5 days (fraction); higher = more cells survive
Compound in the experiment “Vemurafenib + Pemetrexed”: CCCS(=O)(=O)Nc1ccc(F)c(C(=O)c2c[nH]c3ncc(-c4ccc(Cl)cc4)cc23)c1F [Vemurafenib] + Nc1nc2[nH]cc(CCc3ccc(C(=O)N[C@@H](CCC(=O)O)C(=O)O)cc3)c2c(=O)[nH]1 [Pemetrexed] (partner 0.2 µM)
The method, boiled down: (§1)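 Lung cancer cell lines, seeded in 1536-well plates, were treated the following day by pin tool with a single drug or with five library-drug doses (not always all listed) in √10 steps on top of a fixed anchor-drug dose. Cells were fixed and nuclei stained in one step after 5 days, and nuclei were counted. Relative viability is the nuclei count for treated wells divided by that for vehicle wells, reported as medians of duplicate plates.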

Compound in the experiment “Vemurafenib + Phenformin”: CCCS(=O)(=O)Nc1ccc(F)c(C(=O)c2c[nH]c3ncc(-c4ccc(Cl)cc4)cc23)c1F [Vemurafenib] + N=C(N)NC(=N)NCCc1ccccc1 [Phenformin] (partner 250 µM)
The method, boiled down: as §1

Compound in the experiment “Vemurafenib + Tozasertib”: CCCS(=O)(=O)Nc1ccc(F)c(C(=O)c2c[nH]c3ncc(-c4ccc(Cl)cc4)cc23)c1F [Vemurafenib] + Cc1cc(Nc2cc(N3CCN(C)CC3)nc(Sc3ccc(NC(=O)C4CC4)cc3)n2)n[nH]1 [Tozasertib] (partner 0.1 µM)
The method, boiled down:
as §1

Compound in the experiment “OSI-027 + Palbociclib”: COc1cccc2cc(-c3nc([C@H]4CC[C@H](C(=O)O)CC4)n4ncnc(N)c34)[nH]c12 [OSI-027] + CC(=O)c1c(C)c2cnc(Nc3ccc(N4CCNCC4)cn3)nc2n(C2CCCC2)c1=O [Palbociclib] (partner 0.5 µM)
The method, boiled down:
as §1

For eight cell lines, relative viability results are on record in the supplement of paper PMC10307832.

As to HCC-15, the relative viability with Vemurafenib + Pemetrexed (first compound 0.03162 µM) worked out at 0.227; with Vemurafenib + Pemetrexed (first compound 0.1 µM), 0.226; with Vemurafenib + Pemetrexed (first compound 0.3162 µM), 0.209; with Vemurafenib + Pemetrexed (first compound 1 µM), 0.222; with Vemurafenib + Phenformin (first compound 0.03162 µM) it was 0.441; with Vemurafenib + Phenformin (first compound 0.1 µM), 0.497. For the same cell line, the relative viability with Vemurafenib + Phenformin (first compound 1 µM) turned out to be 0.45; in the experiment with Vemurafenib + Tozasertib (first compound 0.03162 µM), 0.375; with Vemurafenib + Tozasertib (first compound 0.1 µM), 0.4; with Vemurafenib + Tozasertib (first compound 0.3162 µM), 0.389; with Vemurafenib + Tozasertib (first compound 1 µM), 0.253; with OSI-027 + Palbociclib (first compound 0.01 µM) it was 0.689. The relative viability was found to be 0.67 in the experiment with OSI-027 + Palbociclib (first compound 0.03162 µM), 0.717 in the experiment with OSI-027 + Palbociclib (first compound 0.1 µM), 0.591 with OSI-027 + Palbociclib (first compound 0.3162 µM) and 0.402 with OSI-027 + Palbociclib (first compound 1 µM).

Take NCI-H1437: the relative viability with Vemurafenib + Pemetrexed (first compound 0.03162 µM) came out at 0.327; with Vemurafenib + Pemetrexed (first compound 0.1 µM), 0.294; in the experiment with Vemurafenib + Pemetrexed (first compound 0.3162 µM), 0.312; in the experiment with Vemurafenib + Pemetrexed (first compound 1 µM), 0.32; with Vemurafenib + Phenformin (first compound 0.03162 µM), 0.258; with Vemurafenib + Phenformin (first compound 0.1 µM) it was 0.315. In addition, the relative viability in the experiment with Vemurafenib + Phenformin (first compound 0.3162 µM) was 0.29; with Vemurafenib + Phenformin (first compound 1 µM), 0.309; in the experiment with Vemurafenib + Tozasertib (first compound 0.03162 µM), 0.404; in the experiment with Vemurafenib + Tozasertib (first compound 0.1 µM), 0.381; in the experiment with Vemurafenib + Tozasertib (first compound 0.3162 µM) it was 0.396; in the experiment with Vemurafenib + Tozasertib (first compound 1 µM), 0.363. The relative viability with OSI-027 + Palbociclib (first compound 0.01 µM) was found to be 0.286; with OSI-027 + Palbociclib (first compound 0.03162 µM), 0.324; with OSI-027 + Palbociclib (first compound 0.1 µM) it was 0.309; with OSI-027 + Palbociclib (first compound 0.3162 µM) it was 0.357; in the experiment with OSI-027 + Palbociclib (first compound 1 µM) it was 0.22.

A-427: the relative viability was 0.866 in the experiment with Vemurafenib + Pemetrexed (first compound 0.03162 µM); 0.918 with Vemurafenib + Pemetrexed (first compound 0.1 µM); 1.1 with Vemurafenib + Pemetrexed (first compound 1 µM); 0.317 in the experiment with Vemurafenib + Phenformin (first compound 0.03162 µM); 0.313 with Vemurafenib + Phenformin (first compound 0.1 µM); 0.267 in the experiment with Vemurafenib + Phenformin (first compound 0.3162 µM). Further, the relative viability with Vemurafenib + Phenformin (first compound 1 µM) was found to be 0.365; in the experiment with Vemurafenib + Tozasertib (first compound 0.03162 µM) it was 0.194; with Vemurafenib + Tozasertib (first compound 0.1 µM), 0.203; in the experiment with Vemurafenib + Tozasertib (first compound 0.3162 µM) it was 0.238; with Vemurafenib + Tozasertib (first compound 1 µM), 0.227; in the experiment with OSI-027 + Palbociclib (first compound 0.01 µM), 0.538. For the same cell line, the relative viability with OSI-027 + Palbociclib (first compound 0.03162 µM) was 0.516; in the experiment with OSI-027 + Palbociclib (first compound 0.1 µM), 0.453; with OSI-027 + Palbociclib (first compound 0.3162 µM) it was 0.414; with OSI-027 + Palbociclib (first compound 1 µM), 0.386.

For NCI-H1975, the relative viability with Vemurafenib + Pemetrexed (first compound 0.03162 µM) stood at 0.285; with Vemurafenib + Pemetrexed (first compound 0.1 µM), 0.284; with Vemurafenib + Pemetrexed (first compound 0.3162 µM), 0.262; with Vemurafenib + Pemetrexed (first compound 1 µM), 0.299; in the experiment with Vemurafenib + Phenformin (first compound 0.03162 µM), 0.422; with Vemurafenib + Phenformin (first compound 0.1 µM), 0.406. For the same cell line, the relative viability was determined as 0.289 with Vemurafenib + Phenformin (first compound 0.3162 µM); 0.466 with Vemurafenib + Phenformin (first compound 1 µM); 0.688 with Vemurafenib + Tozasertib (first compound 0.03162 µM); 0.635 with Vemurafenib + Tozasertib (first compound 0.1 µM); 0.45 with Vemurafenib + Tozasertib (first compound 0.3162 µM); 0.238 with Vemurafenib + Tozasertib (first compound 1 µM). For the same cell line, the relative viability was 0.601 with OSI-027 + Palbociclib (first compound 0.01 µM); 0.578 with OSI-027 + Palbociclib (first compound 0.03162 µM); 0.549 in the experiment with OSI-027 + Palbociclib (first compound 0.1 µM); 0.598 with OSI-027 + Palbociclib (first compound 0.3162 µM); 0.359 in the experiment with OSI-027 + Palbociclib (first compound 1 µM).

Turning to SK-LU-1, the relative viability in the experiment with Vemurafenib + Pemetrexed (first compound 0.03162 µM) stood at 0.928; in the experiment with Vemurafenib + Pemetrexed (first compound 0.1 µM), 0.891; in the experiment with Vemurafenib + Pemetrexed (first compound 0.3162 µM) it was 0.861; with Vemurafenib + Pemetrexed (first compound 1 µM), 0.974; with Vemurafenib + Phenformin (first compound 0.03162 µM) it was 0.428; in the experiment with Vemurafenib + Phenformin (first compound 0.1 µM), 0.555. The relative viability with Vemurafenib + Phenformin (first compound 0.3162 µM) is 0.384; in the experiment with Vemurafenib + Phenformin (first compound 1 µM), 0.521; with Vemurafenib + Tozasertib (first compound 0.03162 µM) it was 0.255; in the experiment with Vemurafenib + Tozasertib (first compound 0.1 µM), 0.283; with Vemurafenib + Tozasertib (first compound 0.3162 µM) it was 0.294; in the experiment with Vemurafenib + Tozasertib (first compound 1 µM) it was 0.298. Moreover, the relative viability is 0.373 in the experiment with OSI-027 + Palbociclib (first compound 0.01 µM); 0.381 in the experiment with OSI-027 + Palbociclib (first compound 0.03162 µM); 0.394 with OSI-027 + Palbociclib (first compound 0.1 µM); 0.302 in the experiment with OSI-027 + Palbociclib (first compound 0.3162 µM); 0.268 with OSI-027 + Palbociclib (first compound 1 µM).

For NCI-H520, the relative viability in the experiment with Vemurafenib + Pemetrexed (first compound 0.03162 µM) turned out to be 0.689; with Vemurafenib + Pemetrexed (first compound 0.1 µM), 0.643; with Vemurafenib + Pemetrexed (first compound 0.3162 µM), 0.532; with Vemurafenib + Pemetrexed (first compound 1 µM), 0.608; with Vemurafenib + Phenformin (first compound 0.03162 µM) it was 0.564; with Vemurafenib + Phenformin (first compound 0.1 µM), 0.702. Moreover, the relative viability stood at 0.435 with Vemurafenib + Phenformin (first compound 0.3162 µM); 0.496 with Vemurafenib + Phenformin (first compound 1 µM); 0.529 in the experiment with Vemurafenib + Tozasertib (first compound 0.03162 µM); 0.411 with Vemurafenib + Tozasertib (first compound 0.1 µM); 0.435 with Vemurafenib + Tozasertib (first compound 0.3162 µM); 0.415 with Vemurafenib + Tozasertib (first compound 1 µM). Also, the relative viability was 0.204 with OSI-027 + Palbociclib (first compound 0.01 µM); 0.18 with OSI-027 + Palbociclib (first compound 0.03162 µM); 0.22 in the experiment with OSI-027 + Palbociclib (first compound 0.1 µM); 0.163 in the experiment with OSI-027 + Palbociclib (first compound 0.3162 µM); 0.145 with OSI-027 + Palbociclib (first compound 1 µM).

Regarding NCI-H1755, the relative viability worked out at 0.512 with Vemurafenib + Pemetrexed (first compound 0.03162 µM); 0.453 with Vemurafenib + Pemetrexed (first compound 0.1 µM); 0.422 with Vemurafenib + Pemetrexed (first compound 0.3162 µM); 0.398 with Vemurafenib + Pemetrexed (first compound 1 µM); 0.545 in the experiment with Vemurafenib + Phenformin (first compound 0.03162 µM); 0.599 with Vemurafenib + Phenformin (first compound 0.1 µM). The relative viability was determined as 0.377 in the experiment with Vemurafenib + Phenformin (first compound 0.3162 µM); 0.597 in the experiment with Vemurafenib + Phenformin (first compound 1 µM); 0.516 with Vemurafenib + Tozasertib (first compound 0.03162 µM); 0.562 with Vemurafenib + Tozasertib (first compound 0.1 µM); 0.555 with Vemurafenib + Tozasertib (first compound 0.3162 µM); 0.53 with Vemurafenib + Tozasertib (first compound 1 µM). The relative viability with OSI-027 + Palbociclib (first compound 0.01 µM) was determined as 0.483; with OSI-027 + Palbociclib (first compound 0.03162 µM), 0.444; with OSI-027 + Palbociclib (first compound 0.1 µM), 0.421; in the experiment with OSI-027 + Palbociclib (first compound 0.3162 µM), 0.445; in the experiment with OSI-027 + Palbociclib (first compound 1 µM) it was 0.336.

In the case of CAL-12T, the relative viability in the experiment with Vemurafenib + Pemetrexed (first compound 0.03162 µM) worked out at 1.16; with Vemurafenib + Pemetrexed (first compound 0.1 µM), 1.15; with Vemurafenib + Pemetrexed (first compound 0.3162 µM) it was 1.52; in the experiment with Vemurafenib + Pemetrexed (first compound 1 µM) it was 1.17; in the experiment with Vemurafenib + Phenformin (first compound 0.03162 µM) it was 0.538; with Vemurafenib + Phenformin (first compound 0.1 µM) it was 0.453. For the same cell line, the relative viability in the experiment with Vemurafenib + Phenformin (first compound 0.3162 µM) came to 0.602; with Vemurafenib + Phenformin (first compound 1 µM) it was 0.552; in the experiment with Vemurafenib + Tozasertib (first compound 0.03162 µM), 0.31; with Vemurafenib + Tozasertib (first compound 0.1 µM) it was 0.289; with Vemurafenib + Tozasertib (first compound 0.3162 µM), 0.346; with Vemurafenib + Tozasertib (first compound 1 µM) it was 0.26. The relative viability was 0.427 with OSI-027 + Palbociclib (first compound 0.01 µM); 0.432 in the experiment with OSI-027 + Palbociclib (first compound 0.03162 µM); 0.28 in the experiment with OSI-027 + Palbociclib (first compound 0.1 µM); 0.313 with OSI-027 + Palbociclib (first compound 0.3162 µM); 0.22 with OSI-027 + Palbociclib (first compound 1 µM).
